Results on twelve molecules are retold here after paper PMC12662241, “New xanthone and chemical constituents from the aerial parts of Mallotus glomerulatus and their cytotoxicity in MCF-7 and MDA-MB-231 breast cancer cells” (ADMET & DMPK, 2025).

Data set [1] relates to MCF-7 cells. Put plainly: Primary screening, MTT cell viability, MCF-7. Particulars: for viability at 50 µM: Homo sapiens, MCF7, 72 h, read-out: MCF-7 cell viability, %, 50 μM, 72 h, MTT; for inhibition of viability of MCF-7 cells: primary single-concentration screening.
Procedure: (§1) MCF-7 cells were cultured in Dulbecco's Modified Eagle Medium/Nutrient Mixture F-12 (DMEM/F-12) (Gibco, New York, USA), which was supplemented with 10 % fetal bovine serum (FBS) (Gibco, New York, USA) and 1 % Penicillin-Streptomycin (P/S) (Gibco, New York, USA). MDA-MB-231 cells were cultured in DMEM high glucose (Gibco, New York, USA), supplemented with 10 % FBS and 1 % P/S.
(§2) MCF-7 cells were cultured in DMEM/F-12, while MDA-MB-231 cells were maintained in high-glucose DMEM. Both media were supplemented with 10 % foetal bovine serum (FBS) and 1 % penicillin/streptomycin (P/S). Cells were incubated for 24 h at 37 °C in a humidified atmosphere with 5 % CO2. […] Doxorubicin was used as a positive control. Following compound treatment, cells were incubated for 72 h under standard culture conditions. After treatment, the medium was replaced with serum-free medium containing 0.5 mg mL^-1 of 3-(4,5-dimethylthiazol-2-yl)-2,5-diphenyltetrazolium bromide (MTT), and cells were incubated for an additional 3 h. The MTT solution was then removed, and dimethyl sulfoxide (DMSO) was added to solubilize the formazan crystals. Absorbance was measured at 595 nm using a Microplate Spectrophotometer MR-850 BioPlate Reader (Biometrics Technologies, Wilmington, DE, USA). Compounds that reduced cell viability to ≤20 % compared to untreated controls were identified as hits for subsequent dose-response analysis. […] Treated cells were incubated for 72 h, followed by an MTT assay as described above. The absorbance at 595 nm was recorded, and IC50 values were determined using GraphPad Prism 9 (GraphPad Software, San Diego, CA, USA).
Data set [2] has as its system MDA-MB-231 cells. Put plainly: Primary screening, MTT cell viability, MDA-MB-231. Particulars: for viability at 50 µM: Homo sapiens, MDA-MB-231, 72 h, read-out: MDA-MB-231 cell viability, %, 50 μM, 72 h, MTT.
Procedure: as §1, §2
In data set [3] the test system is MCF-7 cells. The data set is described as follows: Secondary screening (dose-response), MTT assay, MCF-7. The class given is cell-based, human. As to conditions: read-out: IC50 MCF-7.
Procedure: as §1, §2
In data set [4] the test system is MDA-MB-231 cells. The data set is described as follows: Secondary screening (dose-response), MTT assay, MDA-MB-231. Type of data set: cell-based, human. As to conditions: read-out: IC50 MDA-MB-231.
Procedure: as §1, §2
In data set [5] the test system is HepG2 cells. Particulars: for SI (CC50/IC50) HepG2: MCF-7: ratio of CC50 in HepG2 to IC50 in MCF-7; for SI (CC50/IC50) HepG2: MDA-MB-231: ratio of CC50 in HepG2 to IC50 in MDA-MB-231.
Procedure: (§3) The human liver cells (HepG2 cells) were seeded into a 96-well plate at a cell density of 10^4 cells/well and were incubated with DMEM/F-12 with 10 % FBS and 1 % P/S for 24 hours in an incubator (37 °C and 5 % CO2). […] Then, they were additionally incubated for 72 hours. After 72 hours of incubation, the culture media containing the compounds were removed, and serum-free media containing MTT was added instead, with an additional 3 hours of incubation at 37 °C and 5 % CO2. After 3 hours of incubation, the MTT-containing media was removed and DMSO was added to the assay plates, resulting in different shades of purple colour measured by Microplate Spectrophotometer MR-850 BioPlate Reader. The calculation of CC50 was analysed by using GraphPad Prism 9.
Data set [6] is described as follows: in vitro. Particulars: human, HepG2 cells.
Procedure: as §3
Data set [7] concerns MCF-7 cells. As to conditions: 50 µM.
Procedure: as §1, §2
The test system of data set [8] is MDA-MB-231 cells. As to conditions: 50 µM.
Procedure: as §1, §2

Read-outs that look alike come from different tables or passages of the source.

`CC1(C)C(=O)C=C[C@]2(C)[C@@H]1CC[C@@]13C[C@@H](CC[C@H]12)C(O)(CO)C3` (stereo partly drawn) [Compound 4, anomaluone]: the viability – broadly, a per cent measure of how many cells are alive, often set against a control – at 50 µM in data set [1] (mean ± SEM) was 72.7 ± 4.68%; in data set [2] (mean ± SEM) it was 53.8 ± 1.88%.

`O=c1cc(-c2ccccc2)oc2cc(O)cc(O)c12` [Compound 9, chrysin]: the values for the viability at 50 µM in data set [1] (mean ± SEM) and in data set [2] (mean ± SEM) were 76.7 ± 3.4% and 64.5 ± 1.19%, respectively.

As for `COc1cc(O)c2c(c1)O[C@H](c1ccccc1)CC2=O` [Compound 7, pinostrobin], the figures for the viability at 50 µM in data set [1] (mean ± SEM) and in data set [2] (mean ± SEM) were 88.5 ± 4.12% and 61.6 ± 3.69%, respectively.

Consider “(3,4,5)-trihydroxy-6-methoxy-2,7-bis(3-methylbut-2-en-1-yl)-9H-xanthen-9-one [Compound 1]”, for which the IC50 (as a rule, the midpoint of a concentration-inhibition curve) in data set [3] (72 h, MTT, mean ± SD) was determined as 28300 nM; in data set [4] (72 h, MTT, mean ± SD) it was 34200 nM. Also, the CC50 – broadly, the concentration at which the toxic effect on the cells reaches its halfway point – in data set [5] (read-out: CC50 HepG2, 72 h, MTT) worked out at 32800 nM. Besides, the “MCF-7 cell viability, %” value in data set [1] (50 μM, 72 h, MTT, mean ± SEM) is reported as 1.60 ± 0.10%. In data set [1] (50 μM, 72 h), the “inhibition of viability of MCF-7 cells” value was “more than 80%”. In data set [2] (50 μM, 72 h, MTT, mean ± SEM), the “MDA-MB-231 cell viability, %” value was found to be 59.00 ± 3.33%.

As to `COc1cccc2c1C(=O)c1c(O)c3c(c(O)c1C2=O)C[C@@](O)(C(=O)CO)C[C@@H]3O[C@H]1C[C@H](N)[C@H](O)[C@H](C)O1` [Doxorubicin, reference compound], the IC50 turned out to be 660 nM in data set [3] (Homo sapiens, MCF7, 72 h, MTT, mean ± SD) and 980 nM in data set [4] (Homo sapiens, MDA-MB-231, 72 h, MTT, mean ± SD). Moreover, the figures for the “SI (CC50/IC50) HepG2: MCF-7” value in data set [5] (listed as DoxorubICin) and in data set [5] (listed as doxorubicin) were 0.83 and “below 1”, respectively. The “SI (CC50/IC50) HepG2: MDA-MB-231” value in data set [5] (listed as DoxorubICin) is recorded as 0.56; in data set [5] (listed as doxorubicin), “below 1”. Half-maximal cytotoxicity in data set [6] (CC50 at 72 h) was put at 550 nM. Besides, the values for the viability at 50 µM in data set [1] (mean ± SEM) and in data set [2] (mean ± SEM) were 4.02 ± 0.24% and 4.72 ± 1.07%, respectively.

Take `C[C@H]1C(=O)CC[C@@H]2[C@]1(C)CC[C@H]1[C@@]2(C)CC[C@@]2(C)[C@@H]3CC(C)(C)CC[C@]3(C)CC[C@]12C` [Compound 3, friedelin]: the results for the viability at 50 µM in data set [1] (mean ± SEM) and in data set [2] (mean ± SEM) were 79.2 ± 4.29% and 68.1 ± 2.96%, respectively.

In the case of `COc1cc(-c2cc(=O)c3c(O)c(OC)c(OC)cc3o2)cc(OC)c1OC` [Compound 8, 5-hydroxy-6,7,3',4',5'-pentamethoxyflavone], the viability at 50 µM is 63.1 ± 1.83% in data set [1] (mean ± SEM) and 44.7 ± 1.93% in data set [2] (mean ± SEM).

For `COc1cc2c(O[C@@H]3OC[C@@H](OC)[C@H](OC)[C@H]3O)c3c(c(-c4ccc5c(c4)OCO5)c2cc1OC)C(=O)OC3` [Compound 10, cleistanthin A], the IC50 turned out to be 540 nM in data set [3] (Homo sapiens, MCF7, 72 h) and 20 nM in data set [4] (Homo sapiens, MDA-MB-231, 72 h). Further, the figures for the “SI (CC50/IC50) HepG2: MDA-MB-231” value in data set [5] and in data set [5] (listed as cleistanthin A) were 268.50 and over 100, respectively. In data set [6], this molecule came in with a 50% cytotoxic concentration (CC50) at 72 h of 5370 nM. Further, the viability at 50 µM came to 1.72 ± 0.23% in data set [1] (mean ± SEM) and 8.85 ± 0.73% in data set [2] (mean ± SEM). The “inhibition of viability of MCF-7 cells” value in data set [1] (50 μM, 72 h) is “more than 80%”. In addition, the “inhibition of viability of MDA-MB-231 cells” value in data set [2] (primary single-concentration screening, 50 μM, 72 h) was “more than 80%”.

For `C=C[C@@]1(C)C[C@H]2C[C@H](O)[C@]3(O)[C@@H](CCCC3(C)C)[C@]2(C)CC1=O` [Compound 2, glomerulatusin], the viability at 50 µM in data set [1] (mean ± SEM) amounted to 77.7 ± 4.87%; in data set [2] (mean ± SEM) it was 56.3 ± 2.17%.

On to `O=C1C[C@@H](c2ccccc2)Oc2cc(O)cc(O)c21` [Compound 6, pinocembrin], for which the viability at 50 µM in data set [1] (mean ± SEM) came out at 95.6 ± 2.96%; in data set [2] (mean ± SEM), 74.4 ± 2.32%.

In the case of `CC(=O)c1ccc(O)cc1` [Compound 11, 4-hydroxyacetophenone], the viability at 50 µM in data set [1] (mean ± SEM) was 85.2 ± 4.2%; in data set [2] (mean ± SEM), 50.2 ± 2.73%.

With 3,6-phenanthrenedione [Compound 5], the “MCF-7 cell viability, %” value in data set [7] was 75.58 ± 4.26%. Further, in data set [8], the “MDA-MB-231 cell viability, %” value was found to be 68.01 ± 3.88%.
